Values quoted from earlier work as cited in patent publication US5831002A, “Antitumor peptides” (BASF Aktiengesellschaft, priority 1995, dated 1998).

Conditions: background, literature; cited from earlier work

| Substance | cell growth inhibitory activity |
| --- | --- |
| Dolastatin-15 | potent cell growth inhibitory activity |
| Dolastatin-10 | potent cell growth inhibitory activity |
